88 compounds from a melting point compilation (Tetko et al.; mined from patent text by program, amines drawn as free bases though some values may be those of a salt) can be followed below.

What is called melting point is the temperature of the solid-liquid transition.

Take `CC(Cn1cc(Cl)c(-c2ccccc2Cl)n1)C(=O)N(C)C` (stereo not drawn): the melting point lay in the range of 91 to 92 °C. As for `CC(C=O)=CC=CC(C)=CCO`, the melting point fell in the range of 42 to 45 °C.

The compound `CN(CCCCCCCNC(=NCCCOc1cccc(CN2CCCCC2)c1)NC#N)CCN(Cc1ccc(F)cc1)c1ccccn1` yielded a melting point of 96 to 98 °C. As for `O=Nc1c(O)cc(N2CCCCC2)c2oc3ccccc3c12`, the figure is 181 to 185 °C; as for `COCC(=O)Oc1cc(=O)n(-c2ccccc2)c2ncccc12`, 155 to 157 °C; as for `CCN(CC)c1ccc(N(c2ccc(N(C)C)cc2)C2(c3ccc(N(CC)CC)cc3C)OC(=O)c3ccccc32)cc1` (stereo not drawn), 68 to 83 °C. As for `CCCN(CCCCN1CCN(c2ccccc2)CC1)C1CCc2nc(N)sc2C1` (stereo not drawn), the figure is 156 °C; as for `CC1=CC(OC(=O)c2nc[nH]c2C)C(O)C(C)(C)CC1=O` (stereo not drawn), 99 to 101 °C. In turn, `O=C(O)c1ccc(NC(=O)c2ccc(-c3ccccc3)cc2)cc1` registered a melting point of over 320 °C.

In turn, `CCCCOc1cc(CCC(=O)O)ccc1-c1cccc(CN(C)C(=O)c2cccc(OC)c2)c1` displayed a melting point of 80 to 82 °C. In turn, `CCOC(=O)Cn1c2cccccc-2c(C(N)=O)c1=O` displayed a melting point of 215 to 220 °C. With `CCC=Cc1c(C(C)C)nc(C(C)C)c(CO)c1-c1ccc(F)cc1`, the melting point fell in the range of 115 to 117 °C. Compound `CCc1nc(Cl)c(Oc2cc(OC)ccc2Cl)c(Cl)n1` came in with a melting point of 113 to 114 °C.

In turn, `CCC(C)NC(=O)Nc1ccccc1C(=O)OC` (stereo not drawn) came in with a melting point of 124 °C. The compound `Cc1cc2c(s1)S(=O)(=O)NC2=O` yielded a melting point of 231 °C. Regarding `O=C1c2ccccc2-n2c1nc1ccc(Br)cc1c2=O`, the melting point fell in the range of 315 to 316 °C.

`CCn1ncc2c(NCc3ccncc3)c3ccccc3nc21` showed a melting point of 191 to 192 °C. As for `COC(=O)CC(=O)Nc1cccc(S)c1`, the figure is 52 to 54 °C. As for `COc1cccc(Cl)c1-c1cc2c(c3c1C(=O)NC3=O)c1cc(O)ccc1n2CCCN1C[C@@H](C)N[C@@H](C)C1`, the figure is 199 to 202 °C; as for `CC1(O)C(O)C(CO)OC1n1ccc2c(N=[N+]=[N-])ncnc21` (stereo not drawn), 179 to 180 °C; as for `CCOC(=O)c1c[nH]c2cc(OC)c(OC)cc2c1=O`, 275 to 285 °C. In turn, `CCOc1cc(C2=NN(c3ccccc3)C(=O)[C@H]3CC=CC[C@@H]23)ccc1OC` (relative stereo) returned a melting point of 97 to 99 °C. As to `N#Cc1c(-c2cccc(F)c2)c(Cl)n2c1CNCC2`, the melting point lay within 104 to 106 °C. Take `CC[C@H]1CNCC[C@H]1CCc1c[nH]c2ccccc12`: the melting point amounted to 150 °C. As to `Cc1n[nH]c2cc(-c3nn(C(C)c4oc5cccc(F)c5c(=O)c4-c4cccc(F)c4)c4ncnc(N)c34)ccc12` (stereo not drawn), the melting point fell in the range of 156 to 159 °C. To `Cc1cc(C(F)(F)F)nc(-c2ccc(O)cc2)n1` belongs 131 to 132 °C; to `Cc1ccc(CNC(=O)c2ccc(F)cc2OCC(=O)O)cc1[N+](=O)[O-]`, 159 to 160 °C. For the compound `COc1ccc(COc2cc(C)nc3c(O)cccc23)cc1OC`, the melting point lay in the range of 129 to 131 °C. `CCCCCCCCCCCCCCCCCCOc1ccc(OCc2ccccc2)c(C(=O)N(CC(=O)OCC)CC(=O)OCC)c1` registered a melting point of 61 to 62 °C. Compound `COc1cc(NC(=O)C(F)(F)F)cc(OC)c1C(C)=O` had a melting point of 172 to 173 °C. Consider `Fc1ccc(-c2cc(Cn3cnc4c(Cl)nc5ccccc5c43)on2)cc1`, for which the melting point fell in the range of 219 to 220 °C. As to `CC(Cc1c[nH]c2ccccc12)(NC(=O)OC1C2CC3CC(C2)CC1C3)C(=O)NCC(=NOCC(=O)O)c1ccccc1` (stereo not drawn), the melting point lay in the range of 138 to 142 °C. Turning to `C=C1SC(=O)N(c2ccc3cc(-c4ccc(OC)c(C5(C)CCCCC5)c4)ccc3c2)C1=O`, the melting point was 268 to 271 °C.

Regarding `COC(=O)CCCc1cc2nc(Cl)ccc2n1S(=O)(=O)c1ccc(OC)cc1Cl`, the melting point is 116 to 118 °C. Compound `COc1ccc(Cc2nc3cc(Cl)cc(CCO)c3o2)cc1OC1CCCC1` displayed a melting point of 74 to 76 °C. As for `CCn1cc(C(=O)O)c(=O)c2cc(F)c(N3CCN(C(=O)OC(OC(=O)c4ccccc4)C(=O)OC(C)C)CC3)cc21` (stereo not drawn), the figure is 135 to 143 °C; as for `Cn1nc(-c2cc(CBr)c(Cl)cc2F)c(Cl)c1C(F)(F)F`, 112 to 114 °C.

`NC(=O)NC[C@@H]1CCCc2cc(S(=O)(=O)c3cccc(F)c3)ccc21` had a melting point of 155 to 156 °C. With `O=C1CC(CCO)c2ccccc2N1` (stereo not drawn), the melting point lay within 119 to 120 °C. As for `CC(C)OC(=O)c1cc(N2C(=O)C(C)C(C)N(C)C2=O)c(F)cc1Cl` (stereo not drawn), the figure is 119 to 120 °C; as for `COc1ccc(N2CCN(c3c(C)c(C)c4c(c3C)C(O)(c3ccc(OC(F)(F)F)cc3)C(C)(C)O4)CC2)cc1` (stereo not drawn), 175 to 176 °C. Compound `CNc1nc(C)c(-c2ccncc2)s1` registered a melting point of 155 to 156 °C. With `COc1cc2ncnc(N3CCC(C(C)(O)COS(=O)(=O)c4ccc(C)cc4)CC3)c2cc1OC` (stereo not drawn), the melting point lay in the range of 120 to 124 °C.

Compound `O=C(CCl)Nc1ccc2c(c1NC(=O)COc1ccccc1)C(=O)c1ccccc1C2=O` showed a melting point of 217 to 218 °C. As for `O=C1c2ccccc2C(=O)N1CCc1ccc(C=Cc2ccccc2)cc1`, the melting point lay in the range of 212 to 215 °C.

`CCCC(=O)Oc1cc(-c2nc3cc(F)ccc3s2)ccc1OC`: the melting point was determined as 125 °C. As for `O=C1N=CNC(O)C1C(=O)Nc1ccccc1` (stereo not drawn), the figure is 200 to 208 °C; as for `COC(=O)c1ccccc1NS(=O)(=O)c1ccc(C(=O)NCCc2ccccc2)cc1`, 167 to 168 °C; as for `N#Cc1ccc(-c2ccc(O)c(C(F)(F)F)c2)cc1`, 201 to 203 °C. Consider `CCCCCCCCCCCCCCOC(=O)c1cc(Cl)c(N2N=C(Nc3cc(N4CCCC4=O)ccc3Cl)CC2=O)c(Cl)c1`, for which the melting point lay within 143 to 146 °C. For the compound `COc1ccc(C(C)COc2nc(N)c3ncn(C4OC(CO)C(O)C4O)c3n2)cc1` (stereo not drawn), the melting point lay in the range of 90 to 105 °C.

In turn, `CCOC(=O)C=Cc1ccc(C(=O)Cc2ccccc2)cc1` returned a melting point of 110 to 111 °C. `COc1cccc([C@H]2O[C@H](CC(=O)Nc3nc(C(=O)O)cs3)C(=O)N(CC(C)(C)CO)c3ccc(Cl)cc32)c1OC` returned a melting point of 277 to 278 °C. In the case of `CSc1sc(-c2nnco2)c2c1C(=O)CC(C)(C)C2`, the melting point lay in the range of 185 to 189 °C. As to `CCN(C)C1CCCN(C(=O)c2ccc(NC(=O)c3ccccc3C)cc2)c2ccccc21` (stereo not drawn), the melting point lay within 192 to 193 °C. For `CCCSC(C)c1c(-c2ccc(S(C)(=O)=O)cc2)cnn(-c2ccc(F)cc2)c1=O` (stereo not drawn), the melting point was 45 to 60 °C. On to `N[C@H]1CC[C@H](Nc2ccnc3cc(C(F)(F)F)ccc23)CC1`, for which the melting point is 186 °C. As for `COc1cc(OC)cc(C(=O)Nc2ccc3ccc(Cl)nc3n2)c1`, the figure is 235 °C; as for `CC(=O)c1ccc2c(c1)CC(=O)N2CC(F)(F)F`, 170 to 171 °C. To `CN(C(=O)OC(C)(C)C)c1cc(Oc2cc(C(C)(C)C)c(O)cc2C(C)(C)C)ccc1N` belongs 208 to 210 °C; to `O=C(O)c1cccc(-n2ccc(-c3ccc(OC(F)(F)F)cc3)n2)c1`, 191 to 194 °C. To `CC1(C)Oc2cc(N)c(C#N)cc2[C@@H](N2CCCC2)[C@@H]1O` (relative stereo) belongs 158 to 160 °C; to `CCC(CC)(CO)CCCCS(N)(=O)=O`, 64 to 65 °C. For the compound `CN(C)CCOc1cc(O)cc(/C=C/c2ccc(O)cc2)c1`, the melting point is 92 to 94 °C.

`Cc1cnc(C(N)=O)cn1` showed a melting point of 204 to 206 °C. `NS(=O)(=O)Nc1ccc(N2CCN(c3ccncc3)CC2)cc1` returned a melting point of 216 to 219 °C.

On to `CCSC(C)(C)C(=O)CC(=O)Nc1cc([N+](=O)[O-])ccc1OC`, for which the melting point lay in the range of 138 to 140 °C. Regarding `CCOC(=O)c1nnc2ccc(NC3=CC(=O)CC(C)(C)C3)cc2c1O`, the melting point came to 274 °C. To `CCOC1CC2CCC3C4CCC(C(C)=O)C4(C)CC(NC(=O)OCC(Cl)(Cl)Cl)C3C2(C)CC1OCC` (stereo not drawn) belongs 68 to 71 °C; to `CCCCCCCN(CC1(c2ccccc2)CCCC1)C(=O)Nc1c(C(C)C)cccc1C(C)C`, 95 to 97 °C. `O=C(O)[C@@H]1CSC(=O)N1Cc1ccccc1`: the melting point was in the range of 95 to 97 °C. Take `CC(C)(C)C(=O)c1cnn2cccnc12`: the melting point lay within 130 to 131 °C. `Nc1ccc2oc(-c3ccccc3)cc2c1` had a melting point of 156 °C. Regarding `Nc1c(F)c(F)[nH]c(=O)c1F`, the melting point lay in the range of 199 to 201 °C.

Compound `CNC(=S)N(C)Cc1cnc(Cl)s1` had a melting point of 129 to 131 °C. `CCC(=O)c1ccc2c(c1)OC(c1ccccc1)(c1ccccc1)O2`: the melting point lay within 69 to 70.5 °C.

On to `CCN1CCN(C/C=C/c2ccc3c(Nc4ccc(Sc5nccn5C)c(Cl)c4)c(C#N)cnc3c2)CC1`, for which the melting point fell in the range of 232 to 236 °C. `C=CCc1c(Cl)cc2c(c1O)CCC2` had a melting point of 37 to 39 °C.

Consider `CCOC(=O)/C=C/c1cc(-n2cnnc2)cc(C(F)(F)F)c1N`, for which the melting point lay in the range of 225 to 227 °C.

In turn, `O=C(CCCCCCC(=O)c1ccc(O)cc1)c1ccc(O)cc1` had a melting point of 196 to 198 °C. `COC(=O)C(C)(C)Cc1c(SC(C)(C)C)c2cc(OCc3ccc4cc(F)ccc4n3)ccc2n1Cc1ccc(Cl)cc1` had a melting point of 165 to 167 °C. Take `CCCCCCCCCCCCNc1cc(C)c(C)cc1N`: the melting point lay within 53 to 54 °C. To `CCOC(=O)C1=C(C)NC(N)=C(C(=O)OC(C)C)C1c1ccccc1[N+](=O)[O-]` (stereo not drawn) belongs 139 °C; to `O=C1NC(=O)C(Cc2ccc(Oc3ccc(Oc4ccc(CC5OC(=O)NC5=O)cc4)cc3)cc2)O1` (stereo not drawn), 93 to 96 °C; to `COc1cc2cn(-c3nccs3)nc2cc1OC`, 184 to 187 °C. Take `OCC1OC(n2c(Cl)nc3cc(Br)c(Cl)cc32)C(O)C1O` (stereo not drawn): the melting point fell in the range of 140 to 142 °C.

Consider `O=C(NC1CCCNC1)c1ccc2[nH]ncc2c1` (stereo not drawn), for which the melting point lay within 265 to 266 °C.

`O=C(O)c1cccc(-c2ccc3c(c2)C(c2ccc(Cl)cc2Cl)CC3)c1` (stereo not drawn): the melting point lay in the range of 157 to 158 °C.
